Measurements as given in patent US9249102B2 (priority 2012, dated 2016).
Where two headings read alike, the source gives them in different places.

Tests used:
Haemonchus contortus = experiment: Method A: Haemonchus contortus L1 larvae, microtitre plate screen; settings: 96 h, read-out: motility inhibition
[1] = system: microfilaria of Dirofilaria immitis; experiment: Method F: microfilaria of Dirofilaria immitis, survival at 24 hours
[2] = survival of microfilaria at 24 hours

Row | Structure (SMILES) | inhibition at 5 µg/mL (Haemonchus contortus) [%] | EC50 [1, 2] [µg/mL] | EC50 [1] [µg/mL]
1 | O=C(NCCOc1ccc(Nc2ccc([N+](=O)[O-])c(C(F)(F)F)c2)cc1)C(=O)NCC1Cc2cc(C(F)(F)F)ccc2O1 (stereo not shown) [Compound 227, N^1-(2-(4-(4-nitro-3-(trifluoromethyl)phenylamino)phenoxy)ethyl)-N^2-((5-(trifluoromethyl)-2,3-dihydrobenzofuran-2-yl)methyl)ethanediamide] | ≥ 90 | < 1 | 
2 | O=C(CO[C@H]1CC[C@H](Nc2ccc([N+](=O)[O-])c(C(F)(F)F)c2)CC1)N1CCN(c2ccc3cc(Cl)ccc3c2)CC1 [Compound 233, 1-[4-(6-chloro-2-naphthyl)piperazin-1-yl]-2-[4-[4-nitro-3-(trifluoromethyl)anilino]cyclohexoxy]ethanone] | ≥ 90 | < 1 | 
3 | CC(CN1CCN(c2ccc3ccccc3c2)CC1)C(=O)N1CCC(Nc2ccc([N+](=O)[O-])c(C(F)(F)F)c2)CC1 (stereo not shown) [Compound 13, 2-methyl-3-[4-(naphthalen-2-yl)piperazin-1-yl]-1-(4-[[4-nitro-3-(trifluoromethyl)phenyl]amino]piperidin-1-yl)propan-1-one] | ≥ 90 | < 1 | 
4 | O=C(CO[C@H]1CC[C@H](Nc2ccc([N+](=O)[O-])c(C(F)(F)F)c2)CC1)N1CC2CCC1CN2CC1Cc2cc(F)ccc2O1 (stereo partly shown) [Compound 309, 1-[5-(5-fluoro-2,3-dihydro-benzofuran-2-ylmethyl)-2,5-diaza-bicyclo[2.2.2]oct-2-yl]-2-[4-(4-nitro-3-trifluoromethyl-phenylamino)-cyclohexyloxy]-ethanone] | ≥ 90 | < 0.1 | 
5 | O=C(CO[C@H]1CC[C@H](Nc2ccc([N+](=O)[O-])c(C(F)(F)F)c2)CC1)N1CCN(c2ccc3ccccc3c2)CC1 [Compound 14, 1-[4-(naphthalen-2-yl)piperazin-1-yl]-2-[(4-[[4-nitro-3-(trifluoromethyl)phenyl]amino]cyclohexyl)oxy]ethan-1-one] | ≥ 90 | < 1 | 
6 | CC(O[C@H]1CC[C@H](Nc2ccc([N+](=O)[O-])c(C(F)(F)F)c2)CC1)C(=O)N1CCN(c2ccc3cc(C(F)(F)F)ccc3n2)CC1 (stereo partly shown) [Compound 249, 2-[[-4-[[4-nitro-3-(trifluoromethyl)phenyl]amino]cyclohexyl]oxy]-1-[4-[6-(trifluoromethyl)quinolin-2-yl]piperazin-1-yl]propan-1-one] | ≥ 90 |  | < 1
7 | O=C(CO[C@H]1CC[C@H](Nc2ccc([N+](=O)[O-])c(C(F)(F)F)c2)CC1)N1CCN(C(=O)c2cc3cc(F)ccc3o2)CC1 [Compound 182, 1-[4-[(5-fluoro-1-benzofuran-2-yl)carbonyl]piperazin-1-yl]-2-[(4-[[4-nitro-3-(trifluoromethyl)phenyl]amino]cyclohexyl)oxy]ethan-1-one] | ≥ 90 | < 5 | 
8 | O=C(CO[C@H]1CC[C@H](Nc2ccc([N+](=O)[O-])c(C(F)(F)F)c2)CC1)N1CCN(C(=O)C2Cc3cc(Cl)ccc3O2)CC1 (stereo partly shown) [Compound 79, 1-[4-[(5-chloro-2,3-dihydro-1-benzofuran-2-yl)carbonyl]piperazin-1-yl]-2-[(4-[[4-nitro-3-(trifluoromethyl)phenyl]amino]cyclohexyl)oxy]ethan-1-one] | ≥ 90 | < 5 | 
9 | O=C(CO[C@H]1CC[C@H](Nc2ccc([N+](=O)[O-])c(C(F)(F)F)c2)CC1)N1CCN(c2ccc3cc(F)ccc3c2)CC1 [Compound 17, 1-[4-(6-fluoronaphthalen-2-yl)piperazin-1-yl]-2-[(4-[[4-nitro-3-(trifluoromethyl)phenyl]amino]cyclohexyl)oxy]ethan-1-one] | ≥ 90 | < 1 | 
10 | N#Cc1ccc(N[C@H]2CC[C@H](OCC(=O)N3CCN(Cc4oc5ccc(C(F)(F)F)cc5c4Cl)CC3)CC2)cc1C(F)(F)F [Compound 305, 4-(4-{2-[4-(3-chloro-5-trifluoromethyl-benzofuran-2-ylmethyl)-piperazin-1-yl]-2-oxo-ethoxy}-cyclohexylamino)-2-trifluoromethyl-benzonitrile] | ≥ 90 | < 0.1 | 
11 | CC(CN1CCN(c2ccc3cc(F)ccc3n2)CC1)C(=O)N1CCC(Nc2ccc([N+](=O)[O-])c(C(F)(F)F)c2)CC1 (stereo not shown) [Compound 100, 3-[4-(6-fluoroquinolin-2-yl)piperazin-1-yl]-2-methyl-1-(4-[[4-nitro-3-(trifluoromethyl)phenyl]amino]piperidin-1-yl)propan-1-one] | ≥ 90 | < 5 | 
12 | O=C(COc1ccc(Nc2ccc([N+](=O)[O-])c(C(F)(F)F)c2)cc1)N1CCN(Cc2cc3cc(F)ccc3o2)CC1 [Compound 186] | ≥ 90 | < 1 | 
13 | CC(CN1CCN(c2ccc3cc(Cl)ccc3n2)CC1)C(=O)N1CCC(Nc2ccc([N+](=O)[O-])c(C(F)(F)F)c2)CC1 (stereo not shown) [Compound 93, 3-[4-(6-chloroquinolin-2-yl)piperazin-1-yl]-2-methyl-1-(4-[[4-nitro-3-(trifluoromethyl)phenyl]amino]piperidin-1-yl)propan-1-one] | ≥ 90 | < 5 | 
14 | O=C(CO[C@H]1CC[C@H](Nc2ccc([N+](=O)[O-])c(C(F)(F)F)c2)CC1)N1CCN(c2cc3cc(F)ccc3s2)CC1 [Compound 236, 1-(4-(5-fluorobenzo[b]thiophen-2-yl)piperazin-1-yl)-2-((4-((4-nitro-3-(trifluoromethyl)phenyl)amino)cyclohexyl)oxy)ethanone] | ≥ 90 | < 1 | 
15 | O=C(NCCO[C@H]1CC[C@H](Nc2ccc([N+](=O)[O-])c(C(F)(F)F)c2)CC1)C(=O)NCC1Cc2cc(C(F)(F)F)ccc2O1 (stereo partly shown) [Compound 219, N^1-[2-[(4-[[4-nitro-3-(trifluoromethyl)phenyl]amino]cyclohexyl)oxy]ethyl]-N^2-[[5-(trifluoromethyl)-2,3-dihydro-1-benzofuran-2-yl]methyl]ethanediamide] | ≥ 90 | < 1 | 
16 | O=C(COc1ccc(Nc2ccc([N+](=O)[O-])c(C(F)(F)F)c2)cc1)N1CCN(Cc2cc3cc(Cl)ccc3o2)CC1 [Compound 184, 1-[4-[(5-chloro-1-benzofuran-2-yl)methyl]piperazin-1-yl]-2-(4-[[4-nitro-3-(trifluoromethyl)phenyl]amino]phenoxy)ethan-1-one] | ≥ 90 | < 1 | 
17 | CN(c1ccc([N+](=O)[O-])c(C(F)(F)F)c1)[C@H]1CC[C@H](OCC(=O)N2CCN(Cc3cc4cc(Cl)ccc4o3)CC2)CC1 [Compound 275, 2-[(4-[methyl[4-nitro-3-(trifluoromethyl)phenyl]amino]cyclohexyl)-oxy]1-[4-(5-chlorobenzofuran-2-ylmethyl)piperazin-1-yl]ethan-1-one] | ≥ 90 | < 1 | 
18 | CC(c1oc2ccc(C(F)(F)F)cc2c1Cl)N1CCN(C(=O)CO[C@H]2CC[C@H](Nc3ccc([N+](=O)[O-])c(C(F)(F)F)c3)CC2)CC1 (stereo partly shown) [Compound 255, 2-1-(4-[1-[3-chloro-5-(trifluoromethyl)-1-benzofuran-2-yl]ethyl]piperazin-1-yl)-2-[[4-[[4-nitro-3-(trifluoromethyl)phenyl]amino]cyclohexyl]oxy]ethan-1-one] | ≥ 90 | < 1 | 
19 | O=C(NCCO[C@H]1CC[C@H](Nc2ccc([N+](=O)[O-])c(C(F)(F)F)c2)CC1)C(=O)NCC1Cc2ccccc2O1 (stereo partly shown) [Compound 216] | ≥ 90 | < 1 | 
20 | Cc1cc(N2CCN(C(=O)CO[C@H]3CC[C@H](Nc4ccc([N+](=O)[O-])c(C(F)(F)F)c4)CC3)CC2)nc2ccccc12 [Compound 98, 1-[4-(4-methylquinolin-2-yl)piperazin-1-yl]-2-[(4-[[4-nitro-3-(trifluoromethyl)phenyl]amino]cyclohexyl)oxy]ethan-1-one] | ≥ 90 | < 5 | 
21 | CC(O[C@H]1CC[C@H](Nc2ccc([N+](=O)[O-])c(C(F)(F)F)c2)CC1)C(=O)N1CCN(c2ccc3cc(Cl)ccc3n2)CC1 (stereo partly shown) [Compound 250, 1-[4-(6-chloroquinolin-2-yl)piperazin-1-yl]-2-[[4-[[4-nitro-3-(trifluoromethyl)phenyl]amino]cyclohexyl]oxy]propan-1-one] | ≥ 90 | < 1 | 
22 | C[C@@H]1CN(CC2Cc3cc(F)ccc3O2)[C@@H](C)CN1C(=O)CO[C@H]1CC[C@H](Nc2ccc(C#N)c(C(F)(F)F)c2)CC1 (stereo partly drawn) [Compound 308, 4-(4-{2-[(2R,5S)-4-(5-fluoro-2,3-dihydro-benzofuran-2-ylmethyl)-2,5-dimethyl-piperazin-1-yl]-2-oxo-ethoxy}-cyclohexylamino)-2-trifluoromethyl-benzonitrile] | ≥ 90 |  | < 0.1
23 | O=C(COc1ccc(Nc2ccc([N+](=O)[O-])c(C(F)(F)F)c2)cc1)N1CCN(CC2Cc3cc(F)ccc3O2)CC1 (stereo not shown) [Compound 185, 1-[4-[(5-fluoro-2,3-dihydro-1-benzofuran-2-yl)methyl]piperazin-1-yl]-2-(4-[[4-nitro-3-(trifluoromethyl)phenyl]amino]phenoxy)ethan-1-one] | ≥ 90 | < 0.1 | 
24 | O=C(NCCO[C@H]1CC[C@H](Nc2ccc([N+](=O)[O-])c(C(F)(F)F)c2)CC1)C(=O)NCC1Cc2cc(Cl)ccc2O1 (stereo partly shown) [Compound 218, N^1-[(5-chloro-2,3-dihydro-1-benzofuran-2-yl)methyl]-N^2-[2-[(4-[[4-nitro-3-(trifluoromethyl)phenyl]amino]cyclohexyl)oxy]ethyl]ethanediamide] | ≥ 90 | < 1 | 
25 | CC(CN1CCN(c2ccc3cc(C(F)(F)F)ccc3n2)CC1)C(=O)N1CCC(Nc2ccc([N+](=O)[O-])c(C(F)(F)F)c2)CC1 (stereo not shown) [Compound 92, 2-methyl-1-(4-(4-nitro-3-(trifluoromethyl)phenylamino)piperidin-1-yl)-3-(4-(6-(trifluoromethyl)quinolin-2-yl)piperazin-1-yl)propan-1-one] | ≥ 90 | < 1 | 
26 | N#Cc1ccc(NC2CCN(C(=O)CCCN3CCN(c4ccc5cc(F)ccc5n4)CC3)CC2)cc1C(F)(F)F [Compound 103, 4-[(1-[4-[4-(6-fluoroquinolin-2-yl)piperazin-1-yl]butanoyl]piperidin-4-yl)amino]-2-(trifluoromethyl)benzonitrile] | ≥ 90 | < 5 | 
